{"source": "patent US20120071440A1", "about": "“Pharmaceutical Composition For Enhancing Adiponectin Production And Food Useful Therefor” (priority 2009, published 2012)", "origin": "cited, not measured here", "tested_on": "adiponectin", "settings": "reported in Diabetes Research and Clinical Practice 2004", "data": [{"smiles": "Cn1c(=O)c2c(ncn2C)n(C)c1=O", "note": "[caffeine]", "values": [{"measurement": "adiponectin production", "value": "capable of producing adiponectin, but this effect is not large"}]}]}
